{"source": "patent US10143668B2", "about": "“Hydroxy-substituted amino and ammonium derivatives and their medical use” (GRI BIO, INC., priority 2011, dated 2018)", "key": {"[1]": {"tested_on": "local lymph node reaction", "test": "Local lymph node weight and cell count after TDI challenge", "conditions": "topical, diflorasone 0.1% and 0.5%, 1a 2% or 6%", "procedure": "Directly after sacrifice, the ear draining lymph node (Ln. auricularis) was prepared and excised. Organ weight was determined by means of an analytical balance (Kern, Balingen, Germany). Single cell suspensions were prepared by means of a glass potter (VWR, Darmstadt, Germany) and cells were counted with a hemocytometer (Neubauer, VWR, Germany).\nOne of the most undesirable side-effects of corticosteroid administration is immunosuppression, which leads to the inability to effectively address parasitic infection, wound healing and tumor growth. In the current study, the local lymph node reaction after TDI challenge (lymph node weight and cell number) was determined to assess the response of immune organs."}, "[2]": {"tested_on": "allergic contact dermatitis response in mice", "test": "Allergic contact dermatitis (TDI) model in mice, mouse ear swelling test", "assay_type": "in vivo", "conditions": "topical, 2 h before challenge", "procedure": "The anti-inflammatory and anti-allergic effects of compound 1a were assessed in a mouse model of allergic contact dermatitis, a response driven primarily by T helper type 2 (Th2) cells. […] In this model, an allergic dermatitis response is obtained by sensitizing mice to TDI and subsequently challenging them with antigen by topical administration onto the ears. A quantitative assessment of anti-inflammatory and anti-allergic effects of topically or orally administered test compounds is possible by measuring the resulting ear swelling.\nFemale BALB/c-mice were obtained from Charles River (Sulzfeld, Germany) at age 8 weeks. All animals were housed in groups of eight per cage at 22° C. with a 12 h light/dark-cycle. Water and a standard diet (Altromin, Lage/Lippe, Germany) were available ad libitum. All animals were acclimatized for one week before experimental procedures were commenced.\nExperimental procedures for BALB/c mice housing, TDI sensitization and challenge, and measurement of ear thickness were performed as previously described (Baumer et al., J Pharm Pharmacol. 55:1107-1114 (2003)) with the following modifications. For active sensitization, 100 μL of 5% (w/v) TDI was administered to the shaved and stripped abdominal epidermis on day one, and for the next three consecutive days, 50 μL of 5% (w/v) TDI was applied. The allergic reaction was boosted 21 days later by application of 50 μL of 0.5% (w/v) TDI. For the examination of test compound effects, the left ears were used for the TDI challenge (20 μL of 0.5% in acetone) and ear thickness measured 3 h before and 24 h after challenge.\nAdministration time: to determine optimal time for administration treatment groups were treated orally by gavage with 100 mg/kg of compound 1a (suspended in 0.5% tylose, 10 mL/kg) 1, 4 or 16 h before topical TDI challenge. One group was treated with 100 mg/kg miltefosine orally, 16 h before challenge (based on available data for optimal administration time for miltefosine) and vehicle treated mice received tylose (10 mL/kg) orally, 4 h before challenge.\nComparison with dexamethasone: one group of mice was treated orally with compound 1a at 100 mg/kg suspended in 0.5% tylose, 4 h before topical TDI challenge. Vehicle treated mice received 0.5% tylose orally 4 h before challenge. As a positive control, dexamethasone was administered in saline solution at 1 mg/kg or 3 mg/kg, 2 h and 30 min before challenge and 1 h after challenge. The dose and dosing scheme for dexamethasone was based on previous experience showing a maximal effect in this model.\n[…] The solution was applied, 2 h before topical TDI challenge by administration of 10 μl onto each of the inner and outer surfaces of the left ears. A vehicle group (n=5) was treated with propyleneglycol. As a positive control, diflorasone diacetate was administered at 0.01% (low dose) and 0.05% (high dose) in 20 μl acetone, 2 h before challenge. A basal control group was left untreated.\nMean and standard error of the mean (SEM) were calculated from individual ear edema values. Statistical evaluation was a one-way analysis of variance (ANOVA) (if the test for normal distribution was passed) or the Kruskal-Wallis one-way ANOVA on Ranks (if the normal distribution test failed). Both were followed by a post-hoc test (Dunnett's method or Dunn's test, respectively). A p<0.05 was considered to be significant."}}, "note": "Marks after values point to notes of the source that are not given here.", "data": [{"smiles": "CC(=O)OCC(=O)[C@@]1(OC(C)=O)[C@@H](C)C[C@H]2[C@@H]3C[C@H](F)C4=CC(=O)C=C[C@]4(C)[C@@]3(F)[C@@H](O)C[C@@]21C", "note": "[Diflorasone, diflorasone diacetate, reference compound]", "values": [{"measurement": "local lymph node reaction (lymph node weight and cell number)", "setting": "[1]", "value": "highly significant reduction"}, {"measurement": "Inhibition of mouse ear swelling", "setting": "[2]; 0.1%", "value": "101.1*** %"}, {"measurement": "Inhibition of mouse ear swelling", "setting": "[2]; 0.5%", "value": "110.8*** %"}]}]}
